Experimental data as given in article PMC9063446, “Biochemical and in silico identification of the active site and the catalytic mechanism of the circadian deadenylase HESPERIN” (FEBS Open Bio, 2022).
Blank lines part the entries; values can stand above or below the molecule they belong to.

Columns and labels:
AtHESPERIN (Hesperin) = molecular target: T1, AtHESPERIN (Hesperin) (Arabidopsis thaliana, UniProt A8MS41); assay: colorimetric methylene blue poly(A) degradation assay, modified Hanes-Woolf plot; format: biochemical; conditions: substrate poly(A); Buffer R with 2 mM MgCl2, 0.1 M NaCl, pH 6.5, 25 °C; competitive, reaction product
T1 construct: gene CCR4-4; HESPERIN cDNA in pATHRA (pET-15b derived), E. coli BL21-GOLD(DE3); N-terminal 6xHis tag cut by HRV 3C protease; SEC; oligomer, mainly trimer (~150 kDa)
T1 sequence (A8MS41 1-417): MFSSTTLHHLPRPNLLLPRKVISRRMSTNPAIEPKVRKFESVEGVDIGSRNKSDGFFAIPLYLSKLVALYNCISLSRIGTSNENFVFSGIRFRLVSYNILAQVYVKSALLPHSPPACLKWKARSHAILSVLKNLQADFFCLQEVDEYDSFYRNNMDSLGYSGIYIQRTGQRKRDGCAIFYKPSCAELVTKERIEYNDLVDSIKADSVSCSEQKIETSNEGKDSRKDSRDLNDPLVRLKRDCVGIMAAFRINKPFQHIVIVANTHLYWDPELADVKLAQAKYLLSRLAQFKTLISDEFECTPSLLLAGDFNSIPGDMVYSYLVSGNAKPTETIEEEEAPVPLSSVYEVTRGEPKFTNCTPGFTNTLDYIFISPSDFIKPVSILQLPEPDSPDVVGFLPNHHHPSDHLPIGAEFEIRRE

[1] = molecular target: the molecule itself; assay: native gel or EMSA; 7% PAGE under nondenaturing conditions for acidic proteins; 16 ug AtHESPERIN incubated with urea, up to 4 M; BSA and urease as mass standards

Ki (AtHESPERIN (Hesperin)): 1800 ± 200 nM
Molecule: Nc1ncnc2c1ncn2[C@@H]1O[C@H](COP(=O)(O)O)[C@@H](O)[C@H]1O [AMP]

B1: AtHESPERIN (enzyme, Arabidopsis thaliana, UniProt A8MS41 1-417, looked up)
chain: T1 sequence (A8MS41 1-417)
notes: AtHESPERIN (Hesperin), circadian EEP deadenylase of Arabidopsis thaliana, UniProtKB A8MS41; cDNA cloned in pATHRA behind 6x His tag and HRV 3C site; The His tag was removed with HRV 3C protease (site LEVLFQ/GP), so residues of the site may be left at the N-terminus; It calls the oligomer mainly trimeric; also called native AtHESPERIN; wild-type AtHESPERIN; source: E. coli BL21-GOLD (DE3), …
stoichiometry N [1]: 3
